Test results reported in US20250154207A1, “PEPTIDES FOR DISSOLVING PROTEIN AGGREGATES AND METHODS THEREOF” (REJUKON BIOPHARM INC., priority 2022, published 2025).
Entries after “also recorded” stand apart in the source; their conditions may differ.

Legend:
[1] = system: protein aggregates in eukaryotic cells; assay: depolymerization function in eukaryotic cells; assay type: cell-based; conditions: FIGS. 7-16
Excerpt: The inventors then selected three peptides PLPR3 (SEQ ID NO: 6), ATXN8OS (SEQ ID NO: 7), and GRWD1 (SEQ ID NO: 8) to verify the depolymerization function in eukaryotic cells with the experimental scheme shown in FIG. 6.

[2] = previously identified, PCT/CN2021/111683; cited from earlier work
G3BP1 aggregates = G3BP1 aggregates (Homo sapiens, UniProt Q13283); assay: in vitro dissolving of protein aggregates by purified peptides; assay type: biochemical
Experimental: Given that the charged amino acid residues have the highest percentage in Champ-E, the inventors first tested the function of the charged amino acid residues in dissolving protein aggregates. The inventors generated a series variant of Champ-E with mutation of aspartic acid residues and tested their capability of dissolving protein aggregates in vitro and in cells. The variant peptides were expressed in E. coli and then purified (see FIG. 3). The purified variant peptides were then added to in vitro protein solution that is capable of forming protein aggregates.

Chain of G3BP1 aggregates (Q13283 whole entry): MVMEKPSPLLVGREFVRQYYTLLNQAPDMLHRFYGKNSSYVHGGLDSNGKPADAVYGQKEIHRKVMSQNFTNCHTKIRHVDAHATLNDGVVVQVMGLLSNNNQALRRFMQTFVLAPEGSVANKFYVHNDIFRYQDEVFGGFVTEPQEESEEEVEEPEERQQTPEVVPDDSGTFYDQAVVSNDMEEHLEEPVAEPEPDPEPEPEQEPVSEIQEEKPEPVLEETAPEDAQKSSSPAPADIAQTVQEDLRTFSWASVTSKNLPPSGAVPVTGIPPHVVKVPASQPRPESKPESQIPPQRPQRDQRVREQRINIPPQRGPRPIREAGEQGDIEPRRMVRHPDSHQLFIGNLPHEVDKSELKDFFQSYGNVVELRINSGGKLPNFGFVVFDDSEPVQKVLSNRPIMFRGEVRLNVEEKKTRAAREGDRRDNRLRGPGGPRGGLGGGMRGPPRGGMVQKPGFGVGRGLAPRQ

Row | Substance | depolymerization effect in eukaryotic cells [1] | other results
1 | ATXN8OS: SEQ ID NO: 7, PCPGAPCCSLVATGSRVPFSGLKEEEEEDGEDDEEEEEEG; fragment of human protein | have depolymerization effect | –
2 | CHD3: SEQ ID NO: 13, REKKEKKTKRRKKGEGDGGQKQVEQKSSATLLLTWGLEDV; mixture of positively and negatively charged residues | some depolymerization effect | –
3 | CHD3(E2K): SEQ ID NO: 14, RKKKKKKTKRRKKGKGDGGQKQVKQKSSATLLLTWGLKDV; CHD3 with E mutated to K | still has certain depolymerization effect | –
4 | Champ-E: SEQ ID NO: 1, MTEPQEESEEEVEEPEERQQTPEVVPDDSGTFYDQTVSNDLE; charged amphipathic peptide | – | capable of dissolving protein aggregation [2]: capable of dissolving protein aggregation
5 | “Champ”-Q: SEQ ID NO: 5, TQPQQQSQQQVQQPQQRQQTPQVVPDDSGTFYDQTVSNDLQ; uncharged variant of Champ-E | – | capability of dissolving protein aggregates in vitro (G3BP1 aggregates; purified peptide added to in vitro protein solution capable of forming protein aggregates, FIG. 4): could no longer dissolve protein aggregates; also recorded: no obvious depolymerization effect
6 | C19L2: SEQ ID NO: 10, LPDVNERIEQFSQEHSVKKKKKKDKHSKKAKKEKKKKSKK; few or no P/G | have depolymerization effect | –
7 | PLPR3: SEQ ID NO: 6, PMAEEEEEEEDEEEEEEEEEEEDEGPAPPSLYPTVQARPG; fragment of human protein | have depolymerization effect | –
8 | PELP1: SEQ ID NO: 15, GGPPALEEDLTVININSSDEEEEEEEEEEEEEEEEEEEEE | – | dissolving G3BP1 protein aggregates (G3BP1 aggregates; in vitro, FIG. 17): capable of dissolving G3BP1 protein aggregates
9 | ZNF326: SEQ ID NO: 11, DEPIEEEEDEDEEEEAEEVGEVEEVEEVEEVREGGIEGEG; few or no polar residues | almost no depolymerization effect | –
10 | CACNA1F: SEQ ID NO: 12, DMEEEEEEEEEEEEEEEEEGAGGVELLQEVVPKEKVVPIP; few or no polar residues | almost no depolymerization effect | –
11 | GRWD1: SEQ ID NO: 8, SNRLMMLRMHNLHGTKPPPSEGSDEEEEEEDEEDEEERKP; fragment of human protein | have depolymerization effect | –
